What was measured:
mouse DGAT1 = biological target: T1, mouse DGAT1 (Mus musculus, UniProt Q9Z2A7); test: DGAT1 inhibitory effect test (microsome fraction, [14C]-oleoyl-CoA, triglyceride radioactivity by TLC); format: biochemical; details: 0.5 h; concentration of the test compound 0.1 μg/ml; mouse DGAT1 microsomes, 23° C., 30 minutes; read-out: Inhibitory ratio
T1 construct: made in house; host or cells: insect cells (High Five, Sf9, Sf21, etc.), baculovirus expression system (Invitrogen)
T1 sequence (Q9Z2A7 1-498): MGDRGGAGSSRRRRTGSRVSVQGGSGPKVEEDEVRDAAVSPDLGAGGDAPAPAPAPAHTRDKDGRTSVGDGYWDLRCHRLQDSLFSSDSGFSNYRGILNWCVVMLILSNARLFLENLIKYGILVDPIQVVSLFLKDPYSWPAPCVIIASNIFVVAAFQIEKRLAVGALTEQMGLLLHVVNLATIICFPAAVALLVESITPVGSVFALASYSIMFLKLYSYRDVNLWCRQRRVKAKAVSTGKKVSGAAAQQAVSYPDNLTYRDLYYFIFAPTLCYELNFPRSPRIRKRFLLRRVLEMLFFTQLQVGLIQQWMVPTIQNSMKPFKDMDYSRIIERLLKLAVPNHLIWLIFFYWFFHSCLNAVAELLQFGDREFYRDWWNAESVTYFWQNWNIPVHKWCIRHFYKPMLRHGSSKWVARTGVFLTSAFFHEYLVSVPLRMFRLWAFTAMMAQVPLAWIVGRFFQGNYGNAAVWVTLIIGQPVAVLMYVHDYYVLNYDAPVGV
Summary of the method: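 Baculovirus-expressed mouse DGAT1 insect-cell microsomes (10 μg) were incubated 30 min at 23 °C, pH 8.0, with 0.5 mM 1,2-dioleoyl-sn-glycerol, 30 μM [14C]-oleoyl-CoA and 0.5% Triton X-100. [14C]-triglyceride was quantified after heptane extraction and TLC. Percent inhibition was taken against vehicle control, with 0-min background subtracted.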

Structure (SMILES) | inhibition at 0.1 µg/mL (mouse DGAT1) [%] | melting point
COc1ccc(F)cc1NC(=O)Nc1ccc(N2CCN(C(=O)Nc3ccc(OCCO)cc3C(F)(F)F)CC2)nc1 [Example 223, 4-{5-[3-(5-fluoro-2-methoxy-phenyl)-ureido]-pyridin-2-yl}-piperazine-1-carboxylic acid [4-(2-hydroxy-ethoxy)-2-trifluoromethyl-phenyl]-amide] | ≥ 50 | 172 to 173 °C
COc1ccccc1NC(=O)Nc1ccc(N2CCN(C(=O)Nc3cc(OCCO)ccc3Cl)CC2)nc1 [Example 235, 4-{5-[3-(2-methoxy-phenyl)-ureido]-pyridin-2-yl}-piperazine-1-carboxylic acid [2-chloro-5-(2-hydroxy-ethoxy)-phenyl]-amide] | ≥ 50 | 139 to 141 °C
COc1ccc(C)cc1NC(=O)Nc1ccc(N2CCN(C(=O)Nc3ccc(OCCO)cc3C(F)(F)F)CC2)c(C)c1 [Example 239, 4-{4-[3-(2-methoxy-5-methyl-phenyl)-ureido]-2-methyl-phenyl}-piperazine-1-carboxylic acid [4-(2-hydroxy-ethoxy)-2-trifluoromethyl-phenyl]-amide] | ≥ 50 | 225 to 228 °C
CCC(C)c1ccc(NC(=O)Nc2ccc(N3CCN(C(=O)Nc4c(C)cccc4Cl)CC3)cc2)cc1 (centres unmarked) [Example 161, 4-{4-[3-(4-sec-butyl-phenyl)-ureido]-phenyl}-piperazine-1-carboxylic acid (2-chloro-6-methyl-phenyl)-amide] | ≥ 50 | 259 to 261 °C
CC(C)(C)OC(=O)N1CCN(c2ccc(NC(=O)Nc3ccc(C(C)(C)C)cc3)cc2)CC1 [Example 33, 4-{4-[3-(4-tert-butyl-phenyl)-ureido]-phenyl}-piperazine-1-carboxylic acid tert-butyl ester] | ≥ 50 | 140 to 141 °C
O=C(Nc1ccc(N2CCN(C(=O)Nc3ccc(C(=O)O)cc3Cl)CC2)cc1)Nc1ccccc1F [Example 388, 3-chloro-4-[(4-{4-[3-(2-fluoro-phenyl)-ureido]-phenyl}-piperazine-1-carbonyl)-amino]-benzoic acid] | ≥ 50 | 250 to 253 °C
COc1cc(NC(=O)Nc2ccc(N3CCN(C(=O)Nc4ccc(OCCO)cc4C(F)(F)F)CC3)cc2)cc(OC)c1 [Example 216, 4-{4-[3-(3,5-dimethoxy-phenyl)-ureido]-phenyl}-piperazine-1-carboxylic acid [4-(2-hydroxy-ethoxy)-2-trifluoromethyl-phenyl]-amide] | ≥ 50 | 209 to 210 °C
COc1ccc(C)cc1NC(=O)Nc1ccc(N2CCN(C(=O)Cc3c(F)cccc3F)CC2)cc1 [Example 192, 1-(4-{4-[2-(2,6-difluoro-phenyl)-acetyl]-piperazin-1-yl}phenyl)-3-(2-methoxy-5-methyl-phenyl)-urea] | ≥ 50 | 213 to 215 °C
CCOc1ccc(C)cc1NC(=O)Nc1ccc(N2CCN(C(=O)Nc3ccccc3C(F)(F)F)CC2)cc1 [Example 83, 4-{4-[3-(2-ethoxy-5-methyl-phenyl)-ureido]-phenyl}-piperazine-1-carboxylic acid (2-trifluoromethyl-phenyl)-amide] | ≥ 50 | 219 to 220 °C
COc1ccc(C)cc1NC(=O)Nc1ccc(C2=CCN(C(=O)Nc3ccc(OCCO)cc3C(F)(F)F)CC2)cc1 [Example 230, 4-{4-[3-(2-methoxy-5-methyl-phenyl)-ureido]-phenyl}-3,6-dihydro-2H-pyridine-1-carboxylic acid [4-(2-hydroxy-ethoxy)-2-trifluoromethyl-phenyl]-amide] | ≥ 50 | 150 to 153 °C
CCOc1ccc(C)cc1NC(=O)Nc1ccc(N2CCN(C(=O)Nc3ncccc3C)CC2)nc1 [Example 307, 4-{5-[3-(2-ethoxy-5-methyl-phenyl)-ureido]-pyridin-2-yl}-piperazine-1-carboxylic acid (3-methyl-pyridin-2-yl)-amide] | ≥ 50 | 198 to 200 °C
COc1ccc(F)cc1NC(=O)Nc1ccc(N2CCN(C(=O)Nc3c(C)cccc3C)CC2)cc1 [Example 99, 4-{4-[3-(5-fluoro-2-methoxy-phenyl)-ureido]-phenyl}-piperazine-1-carboxylic acid (2,6-dimethyl-phenyl)-amide] | ≥ 50 | 226 to 228 °C
COc1ccc(C)cc1NC(=O)Nc1ccc(N2CCN(C(=O)Nc3ncccc3C)CC2)nc1 [Example 301, 4-{5-[3-(2-methoxy-5-methyl-phenyl)-ureido]-pyridin-2-yl}-piperazine-1-carboxylic acid (3-methyl-pyridin-2-yl)-amide] | ≥ 50 | 216 to 218 °C
COc1ccc(C)cc1NC(=O)Nc1ccc(N2CCN(C(=O)Nc3c(C)cccc3C)CC2)cc1 [Example 62, 4-{4-[3-(2-methoxy-5-methyl-phenyl)-ureido]-phenyl}-piperazine-1-carboxylic acid (2,6-dimethyl-phenyl)-amide] | ≥ 50 | 212 to 214 °C
COc1ccc(C)cc1NC(=O)Nc1ccc(N2CCN(C(=O)Nc3ccc(OCCO)cc3C(F)(F)F)CC2)c(C#N)c1 [Example 242, 4-{2-cyano-4-[3-(2-methoxy-5-methyl-phenyl)-ureido]-phenyl}-piperazine-1-carboxylic acid [4-(2-hydroxy-ethoxy)-2-trifluoromethyl-phenyl]-amide] | ≥ 50 | 135 to 137 °C
CCOc1ccc(NC(=O)Nc2ccc(N3CCN(C(=O)Nc4c(C)cccc4Cl)CC3)cc2)cc1 [Example 159, 4-{4-[3-(4-ethoxy-phenyl)-ureido]-phenyl}-piperazine-1-carboxylic acid (2-chloro-6-methyl-phenyl)-amide] | ≥ 50 | 229 to 230 °C
COc1ccc(C)cc1NC(=O)Nc1ccc(N2CCN(C(=O)Nc3c(F)cccc3C(F)(F)F)CC2)cc1 [Example 64, 4-{4-[3-(2-methoxy-5-methyl-phenyl)-ureido]-phenyl}-piperazine-1-carboxylic acid (2-fluoro-6-trifluoromethyl-phenyl)-amide] | ≥ 50 | 134 to 136 °C

Next, values leading:

inhibition at 0.1 µg/mL (mouse DGAT1) [%] | melting point | Structure (SMILES)
≥ 50 | 188 to 190 °C | CCOc1ccccc1NC(=O)Nc1ccc(N2CCN(C(=O)Nc3c(C)cccc3C)CC2)nc1 [Example 142, 4-{5-[3-(2-ethoxy-phenyl)-ureido]-pyridin-2-yl}-piperazine-1-carboxylic acid (2,6-dimethyl-phenyl)-amide]
≥ 50 | 162 °C | CCOc1ccccc1NC(=O)Nc1ccc(N2CCN(C(=O)OC(C)(C)C)CC2)nc1 [Example 39, 4-{5-[3-(2-ethoxy-phenyl)-ureido]-pyridin-2-yl}-piperazine-1-carboxylic acid tert-butyl ester]
≥ 50 | 143 to 145 °C | COc1ccc(C)cc1NC(=O)Nc1ccc(N2CCN(C(=O)Nc3c(C)cccc3Cl)CC2)cc1 [Example 59, 4-{4-[3-(2-methoxy-5-methyl-phenyl)-ureido]-phenyl}-piperazine-1-carboxylic acid (2-chloro-6-methyl-phenyl)-amide]
≥ 50 | 189 to 190 °C | COc1ccc(Cl)cc1NC(=O)Nc1ccc(N2CCN(C(=O)Nc3c(Cl)cccc3Cl)CC2)cc1 [Example 132, 4-{4-[3-(5-chloro-2-methoxy-phenyl)-ureido]-phenyl}-piperazine-1-carboxylic acid (2,6-dichloro-phenyl)-amide]
≥ 50 | 140 to 143 °C | CCOc1cccc(NC(=O)Nc2ccc(N3CCN(C(=O)Nc4cc(OCCO)ccc4Cl)CC3)nc2)c1 [Example 236, 4-{5-[3-(3-ethoxy-phenyl)-ureido]-pyridin-2-yl}-piperazine-1-carboxylic acid [2-chloro-5-(2-hydroxy-ethoxy)-phenyl]-amide]
≥ 50 | 133 to 135 °C | O=C(Nc1ccc(N2CCN(C(=O)C(O)c3ccc(O)cc3Cl)CC2)nc1)Nc1ccccc1F (centres unmarked) [Example 379, 1-(6-{4-[2-(2-chloro-4-hydroxy-phenyl)-2-hydroxy-acetyl]-piperazin-1-yl}-pyridin-3-yl)-3-(2-fluoro-phenyl)-urea]
≥ 50 | > 270 °C (dec.) | COc1ccc(C)cc1NC(=O)Nc1ccc(N2CCN(C(=O)Nc3ccc(F)cc3C)CC2)cc1 [Example 172, 4-{4-[3-(2-methoxy-5-methyl-phenyl)-ureido]-phenyl}-piperazine-1-carboxylic acid (4-fluoro-2-methyl-phenyl)-amide]
≥ 50 | 245 to 247 °C | COc1ccccc1NC(=O)Nc1ccc(N2CCN(C(=O)Nc3c(C)cccc3Cl)CC2)cc1 [Example 124, 4-{4-[3-(2-methoxy-phenyl)-ureido]-phenyl}-piperazine-1-carboxylic acid (2-chloro-6-methyl-phenyl)-amide]
